Tests used:
phospho-ERK1/2 = experiment: Western blot of p-ERK1/2 in A549 cells (EGF stimulated); type: cell-based; details: Homo sapiens, read-out: p-ERK1/2 IC50 (EGFR), Western blot quantification
Experimental: Phosphorylation levels of EGFR were assessed[37] in A549 cells, while phosphorylation levels of ERBB4 were assessed in T-47D cells. Before stimulation experiments were performed, both cell types were starved overnight in 1% FCS and compounds were incubated for 1 h. […] For lysis, cells were washed 1x with PBS and lysed in a Triton X- lysis buffer (1% Triton X-100, 50 mM Tris pH7.5, 150 mM NaCl, 1 mM EGTA) containing the Complete protease inhibitor cocktail (Roche) and PhosSTOP phosphatase inhibitor (Roche). Briefly, cells were lysed and kept on ice for 10 min, sonicated 3x for 10 s at 4°C, and denatured for 10 min at 70°C. The Mini-PROTEAN Tetra Electrophoresis System and Trans-Blot Turbo Botting System (both Bio-Rad) were used for running and blotting protein gels. […] Total EGFR and ERBB4 protein levels were determined using an anti-EGFR antibody (RRID: AB_10920395) (clone A-10, dilution 1:1000, sc-373746, Santa Cruz Biotechnology) and an anti-ERBB4 antibody (RRID: AB_731579) (clone E200, dilution 1:1000, ab32375, Abcam). […] Tubulin levels were determined using an anti-Tubulin antibody (RRID: AB_477579) (dilution 1:2000, No. T 5168, Sigma-Aldrich). For quantification, phosphorylation levels of p-EGFR relative to EGFR as well as p-ERBB4 relative to ERBB4 were calculated using the Lukemiller protocol (http://lukemiller.org/index.php/2010/11/analyzing-gels-and-western-blots-with-image-j/). […]

EGFR EGR1p = experiment: ERBBprofiler barcoded EGR1p pathway sensor, EGFR co-transfected; details: Rattus norvegicus, PC-12, 6 h, read-out: EGFR EGR1p IC50
HTR2A CRE = experiment: ERBBprofiler barcoded CRE pathway sensor, HTR2A co-transfected; details: Rattus norvegicus, PC-12, 6 h, read-out: HTR2A CRE IC50
ERBB4 EGR1p = experiment: ERBBprofiler barcoded EGR1p pathway sensor, ERBB4 co-transfected; details: Rattus norvegicus, PC-12, 6 h, read-out: ERBB4 EGR1p IC50
[1] = test system: SkBr3, BT474 and HER2-overexpressing ovarian cancer cells SkOV3; parameters: method as in Moasser et al., 2001; details: cell growth assay in SkBr3, BT474 and SkOV3 cells; ref Moasser et al., 2001; read-out: IC50_Literature, ERBB2; cited from earlier work
ERBB4 CRE = experiment: ERBBprofiler barcoded CRE pathway sensor, ERBB4 co-transfected; details: PC12 cells; constant EGF 30 ng/mL, EGFld 10 ng/mL, serotonin 1 μM; 6 h; barcode readout; relative IC50
ERBB3 = test system: ERBB3; parameters: method as in Boateng et al., 2021; details: ELISA in MCF-7 cells; ref Boateng et al., 2021; read-out: IC50_Literature, ERBB3; cited from earlier work
EGFR = test system: EGFR; parameters: method as in Fry et al., 1994; details: phospho-WB in A-431 cells; ref Fry et al., 1994; read-out: IC50_Literature, EGFR; cited from earlier work
EGFR CRE = experiment: ERBBprofiler barcoded CRE pathway sensor, EGFR co-transfected; details: PC12 cells; constant EGF 30 ng/mL, EGFld 10 ng/mL, serotonin 1 μM; 6 h; barcode readout; relative IC50
ERBB4 NFAT = experiment: ERBBprofiler barcoded NFAT pathway sensor, ERBB4 co-transfected; type: cell-based, Rattus norvegicus; details: PC12 cells; constant EGF 30 ng/mL, EGFld 10 ng/mL, serotonin 1 μM; 6 h; barcode readout; relative IC50
A-431 cells = test system: A-431 cells; parameters: method as in Li et al., 2017; details: Proliferation assay, SRB method, ref Li et al., 2017, read-out: IC50_Literature, EGFR; cited from earlier work
[2] = test system: SK–BR–3 cells and NCI-N87 cells; parameters: method as in Li et al., 2017; details: Proliferation assay, SRB method, ref Li et al., 2017, read-out: IC50_Literature, ERBB2; cited from earlier work
EGFR NFAT = experiment: ERBBprofiler barcoded NFAT pathway sensor, EGFR co-transfected; type: cell-based, Rattus norvegicus; details: PC12 cells; constant EGF 30 ng/mL, EGFld 10 ng/mL, serotonin 1 μM; 6 h; barcode readout; relative IC50
CRE sensor = CRE sensor only luciferase assay in PC12 cells; type: cell-based, Rattus norvegicus

IC50 (phospho-ERK1/2) | IC50 (EGFR EGR1p) | IC50 (HTR2A CRE) | IC50 (ERBB4 EGR1p) | EC50 (CRE sensor; Rattus norvegicus, PC-12) | SMILES | IC50 [1] | ERBB4 CRE IC50 (ERBB4 CRE) | IC50 (ERBB3) | IC50 (EGFR) | EGFR CRE IC50 (EGFR CRE) | ERBB4 NFAT IC50 (ERBB4 NFAT) | IC50 (A-431 cells) | IC50 [2] | EGFR NFAT IC50 (EGFR NFAT) | effect on CRE sensor activity (luciferase), in words (CRE sensor; PC12 cells, CRE sensor only, stimulation mix)
91 nM | 23 nM | 31 nM | 47 nM | – | COc1cc2ncnc(Nc3cccc(Cl)c3)c2cc1OC [AG1478, AG-1478 (Tyrphostin AG-1478)] | 300 to 2000 nM | no effect (EGFR, ERBB2/3, ERBB4); 0.031 µM (HTR2A, small effect) | 857 nM | […] | no effect (EGFR, ERBB2/3, ERBB4); 0.031 µM (HTR2A, small effect) | – | – | – | – | –
6540 nM | 261 nM | – | 113 nM | 1380 nM | CCOc1cc2ncc(C#N)c(Nc3ccc(OCc4ccccn4)c(Cl)c3)c2cc1NC(=O)/C=C/[C@H]1CCCN1C [Pyrotinib] | – | – | – | – | – | no effect (EGFR, ERBB2/3, ERBB4) - 0.576 µM (HTR2A, small effect) | 45 nM | 39 to 42 nM | no effect (EGFR, ERBB2/3, ERBB4) - 0.576 µM (HTR2A, small effect) | CRE sensor activation at high compound concentrations

Source: publication PMC10831936 (iScience, 2024)
